Experimental findings from patent US7803792B2, “Quaternary ammonium compounds” (Asahi Kasei Pharma Corporation, priority 2002, dated 2010) are described below.

In one data set the target is T1, human IBAT (Homo sapiens, UniProt Q12908).
T1 construct: expressed in transfected cells; host or cells: Cos 7
T1 sequence (Q12908 1-348): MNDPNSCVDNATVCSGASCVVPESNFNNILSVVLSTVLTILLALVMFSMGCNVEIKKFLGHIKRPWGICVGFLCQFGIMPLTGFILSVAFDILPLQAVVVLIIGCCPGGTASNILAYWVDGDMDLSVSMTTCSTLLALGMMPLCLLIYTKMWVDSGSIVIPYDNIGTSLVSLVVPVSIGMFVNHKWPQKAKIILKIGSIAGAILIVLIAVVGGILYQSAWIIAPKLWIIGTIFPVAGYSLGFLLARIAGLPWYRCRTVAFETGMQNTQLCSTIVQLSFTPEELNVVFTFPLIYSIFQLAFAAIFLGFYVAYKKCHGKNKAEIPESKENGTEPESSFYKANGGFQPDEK
Put plainly: In vitro assay of temporarily expressed human IBAT transporter using Cos 7 cells (Test Example 8). It counts as cell-based. As to conditions: Cos 7 cells temporarily expressing human IBAT; [3H] taurocholate 8 μM, 37° C., 60 minutes. Here is the method: In Vitro Assay of Compounds Which Inhibit Temporarily Expressed Human IBAT Transporter or Rat IBAT Transporter Using Cos 7 Cells
In this test example, the in vitro assay of the compounds which inhibit temporarily expressed human IBAT transporter or rat IBAT transporter using Cos cells was carried out according to the method described in Am. J. Physiol., 274, G157-169.
That is, […] Cos 7 were inoculated on a 24-well cell plate. One day later, 0.3 μg per well of cDNA of a human IBAT or a rat IBAT was transfected by using FuGENE6 (manufactured by ROCHE PHARMACEUTICAL CO., LTD.). For the assay, the cells cultured for one day after the transfection were used and the following procedure was followed. The cells were washed once with an assay buffer, Hank's buffer solution containing 25 mM glucose and with 10 mM HEPES (pH 7.4), and then the assay buffer was replaced by an assay buffer to which the test compound was added. After adding [^3H] taurocholate to a final concentration of 8 μM, the cells were incubated at 37° C. for 60 minutes. [^3H] taurocholate was allowed to be incorporated in Cos 7 cells through human IBAT or rat IBAT. The reaction was stopped by washing twice with a buffer prepared by adding 1 mM taurocholate to the assay buffer and lyzing the cells with 0.2M NaOH. Measurement of radioactivity was carried out by introducing the cell lyzate in 4 ml of liquid scintillation cocktail, stirring the mixture well, and then measuring the radioactivity by a scintillation counter.

Another data set deals with Caco 2 cells. Put plainly: Toxicity with respect to alimentary canal: cytotoxicity to Caco 2, LDH activity (Test Example 12). The class given is cell-based, human. As to conditions: LDH activity after 2 hours, relative to cytolytic agent = 100%. As for the experimental part:
Toxicity With Respect to Alimentary Canal
To evaluate the toxicity of the compounds of the present invention to the alimentary canal, the cytotoxicity to Caco 2, which is a human originated small intestine epithelial cell line, was tested by referring to the method of Bestwick C S et al. [Biochimica et Biophysica Acta 1474: 47-55, 1999].
That is, Caco 2 cells (purchased from ATCC) were inoculated on a 96-well plate such that there were 10,000 cells/well [MEM-E medium, 10% FBS (Fetal Bovine Serum), 1% NEAA (Non Essential Amino Acid) solution, (both manufactured by GIBCO PHARMACEUTICAL COMPANY)]. After culturing for 48 hours, the test compounds were diluted with the culture medium and added to the respective wells. After 2 hours, 50 μl of the culture broth was collected and the LDH activity in the collected culture broth was measured by using an LDH activity measuring kit (CytoTox 96 Non-Radioactive Cytotoxicity Assay, manufactured by PROMEGA CORPORATION). Relative activities were calculated assuming the LDH activity as 100% when the Caco 2 cells were treated with the cytolytic agent and the obtained relative activities were taken as cytotoxicities to Caco 2 cell.

The IC50 is the midpoint of a concentration-inhibition curve. As for `CCCCC1(CCCC)CS(=O)(=O)c2ccc(N(C)C)cc2C(c2cccc(NC(=S)Nc3ccc(C[N+]45CCN(CC4)CC5)cc3)c2)N1.[Br-]` (stereo not drawn) [Example 3705], half-maximal inhibition against human IBAT (IC50) required 54 nM. Moreover, the “Toxicity (%) to Caco 2” value in the data set with Caco 2 cells (3 μM), in the data set on Caco 2 cells (10 μM) and in the data set on Caco 2 cells (30 μM) was below 1% each time.
On human IBAT, `CCCCC1(CCCC)CS(=O)(=O)c2ccc(N(C)C)cc2C(c2cccc(NC(=S)Nc3ccc(C[n+]4ccc(C)cc4)cc3)c2)N1.[Br-]` (stereo not drawn) [Example 3709] returned a half-maximal inhibitory concentration (IC50) of 49 nM. In addition, the “Toxicity (%) to Caco 2” value with Caco 2 cells (3 μM), in the data set on Caco 2 cells (10 μM) and in the data set on Caco 2 cells (30 μM) was below 1% in each case.
On human IBAT, `CCCCC1(CCCC)CS(=O)(=O)c2ccc(N(C)C)cc2C(c2cccc(NC(=S)Nc3ccc(C[n+]4ccc5c(c4)CCCC5)cc3)c2)N1` (stereo not drawn) [Example 4223] displayed an IC50 of 25 nM.
The compound `CCCCC1(CCCC)CS(=O)(=O)c2ccc(N(C)C)cc2C(c2cccc(NC(=S)Nc3cccc(C[N+](C)(C)CCCC)c3)c2)N1` (stereo not drawn) [Example 4226] displayed a half-maximal inhibitory concentration (IC50) on human IBAT of 99 nM.
The same measure, in the same setting: in the case of `CCCCC1(CCCC)CS(=O)(=O)c2ccc(N(C)C)cc2C(c2cccc(NC(=S)Nc3cccc(C[N+](CC)(CC)CC)c3)c2)N1` (stereo not drawn) [Example 4232] it was 99 nM; in that of `CCCCC1(CCCC)CS(=O)(=O)c2ccc(N(C)C)cc2C(c2cccc(NC(=S)Nc3cccc(C[N+](CC)(CC)CCCC)c3)c2)N1` (stereo not drawn) [Example 4233], 46 nM; in that of `CCCCC1(CCCC)CS(=O)(=O)c2ccc(N(C)C)cc2C(c2cccc(NC(=S)Nc3cccc(C[N+](C)(CCC)CCC)c3)c2)N1` (stereo not drawn) [Example 4243], 78 nM.
On the same count and under the same terms, to `C=CC[N+](C)(C)Cc1cccc(NC(=S)Nc2cccc(C3NC(CCCC)(CCCC)CS(=O)(=O)c4ccc(N(C)C)cc43)c2)c1` (stereo not drawn) [Example 4246] belongs 72 nM; to `C=CC[N+](CC)(CC)Cc1cccc(NC(=S)Nc2cccc(C3NC(CCCC)(CCCC)CS(=O)(=O)c4ccc(N(C)C)cc43)c2)c1` (stereo not drawn) [Example 4247], 91 nM.
Same read-out and setting: to `CCCCC1(CCCC)CS(=O)(=O)c2ccc(N(C)C)cc2C(c2cccc(NC(=S)Nc3cccc(C[N+](C)(C)CCc4ccccc4)c3)c2)N1` (stereo not drawn) [Example 4259] belongs 67 nM.
Compound `CCCCC1(CCCC)CS(=O)(=O)c2ccc(N(C)C)cc2C(c2cccc(NC(=S)Nc3cccc(C[N+](C)(CC)Cc4ccccc4)c3)c2)N1` (stereo not drawn) [Example 4260] registered an IC50 on human IBAT of 74 nM.
Turning to `C=Cc1ccc(C[N+](C)(C)Cc2cccc(NC(=S)Nc3cccc(C4NC(CCCC)(CCCC)CS(=O)(=O)c5ccc(N(C)C)cc54)c3)c2)cc1` (stereo not drawn) [Example 4263], the IC50 against human IBAT was 72 nM.
The same measure, in the same setting: in the case of `CCCCC1(CCCC)CS(=O)(=O)c2ccc(N(C)C)cc2C(c2cccc(NC(=S)Nc3cccc(C[N+](C)(C)Cc4cccc(OC)c4)c3)c2)N1` (stereo not drawn) [Example 4371] it was 74 nM; in that of `CCCCC1(CCCC)CS(=O)(=O)c2ccc(N(C)C)cc2C(c2cccc(NC(=S)Nc3cccc(C[N+]4(CC)CCCCC4)c3)c2)N1` (stereo not drawn) [Example 4405], 62 nM; in that of `C=CC[N+]1(Cc2cccc(NC(=S)Nc3cccc(C4NC(CCCC)(CCCC)CS(=O)(=O)c5ccc(N(C)C)cc54)c3)c2)CCCCC1` (stereo not drawn) [Example 4408], 73 nM.
On the same count and under the same terms, in the case of `CCCCC1(CCCC)CS(=O)(=O)c2ccc(N(C)C)cc2C(c2cccc(NC(=S)Nc3cccc(C[N+]4(C)CCN(C)CC4)c3)c2)N1` (stereo not drawn) [Example 4479] it was 78 nM; in that of `CCCCC1(CCCC)CS(=O)(=O)c2ccc(N(C)C)cc2C(c2cccc(NC(=S)Nc3cccc(C[N+]45CCC(c6ccccc6)(CC4)CC5)c3)c2)N1` (stereo not drawn) [Example 4513], 92 nM.
Consider `CCCCC1(CCCC)CS(=O)(=O)c2ccc(N(C)C)cc2C(c2cccc(NC(=S)Nc3cccc(C[N+]45CCN(CC4)CC5)c3)c2)N1` (stereo not drawn) [Example 4522], for which the concentration for half-maximal inhibition (IC50) at human IBAT was found to be 97 nM. The IC50 values of the last two compounds are within 1.5-fold of each other.
As for `CCCCC1(CCCC)CS(=O)(=O)c2ccc(N(C)C)cc2C(c2cccc(NC(=S)Nc3cccc(C[n+]4ccc(CC)cc4)c3)c2)N1` (stereo not drawn) [Example 4527], at human IBAT, 73 nM corresponded to half-maximal inhibition (IC50).
Consider `CCCCC1(CCCC)CS(=O)(=O)c2ccc(N(C)C)cc2C(c2cccc(NC(=S)Nc3cccc(C[n+]4ccc(CCC)cc4)c3)c2)N1` (stereo not drawn) [Example 4528], for which the IC50 against human IBAT was 91 nM.
At human IBAT, `CCCCC1(CCCC)CS(=O)(=O)c2ccc(N(C)C)cc2C(c2cccc(NC(=S)Nc3cccc(C[n+]4ccc(-c5ccccc5)cc4)c3)c2)N1` (stereo not drawn) [Example 4534] returned an IC50 of 76 nM.
Same read-out and setting: to `CCCCC1(CCCC)CS(=O)(=O)c2ccc(N(C)C)cc2C(c2cccc(NC(=S)Nc3cccc(C[n+]4cccc(CC)c4)c3)c2)N1` (stereo not drawn) [Example 4539] belongs 64 nM; to `CCCCC1(CCCC)CS(=O)(=O)c2ccc(N(C)C)cc2C(c2cccc(NC(=S)Nc3cccc(C[n+]4cccc(-c5cccs5)c4)c3)c2)N1` (stereo not drawn) [Example 4543], 82 nM; to `CCCCC1(CCCC)CS(=O)(=O)c2ccc(N(C)C)cc2C(c2cccc(NC(=S)Nc3cccc(C[n+]4cc(C)cc(C)c4)c3)c2)N1` (stereo not drawn) [Example 4546], 87 nM.
In the case of `CCCCC1(CCCC)CS(=O)(=O)c2ccc(N(C)C)cc2C(c2cccc(NC(=S)Nc3cccc(C[n+]4cc(C)cc(-c5ccccc5)c4)c3)c2)N1` (stereo not drawn) [Example 4547], inhibition at human IBAT was half-maximal at 72 nM (IC50).
On the same count and under the same terms, to `CCCCC1(CCCC)CS(=O)(=O)c2ccc(N(C)C)cc2C(c2cccc(NC(=S)Nc3cccc(C[n+]4ccc(OC)cc4)c3)c2)N1` (stereo not drawn) [Example 4551] belongs 76 nM; to `CCCCC1(CCCC)CS(=O)(=O)c2ccc(N(C)C)cc2C(c2cccc(NC(=S)Nc3cccc(C[n+]4cccc5ccccc54)c3)c2)N1` (stereo not drawn) [Example 4585], 78 nM.
Same read-out and setting: in the case of `CCCCC1(CCCC)CS(=O)(=O)c2ccc(N(C)C)cc2C(c2cccc(NC(=S)Nc3cccc(C[n+]4cccc5cc(C)ccc54)c3)c2)N1` (stereo not drawn) [Example 4587] it was 60 nM; in that of `CCCCC1(CCCC)CS(=O)(=O)c2ccc(N(C)C)cc2C(c2cccc(NC(=S)Nc3cccc(C[n+]4cccc5cc(C(C)C)ccc54)c3)c2)N1` (stereo not drawn) [Example 4589], 46 nM.
The same measure, in the same setting: in the case of `CCCCC1(CCCC)CS(=O)(=O)c2ccc(N(C)C)cc2C(c2cccc(NC(=S)Nc3cccc(C[n+]4ccc5ccccc5c4)c3)c2)N1` (stereo not drawn) [Example 4600] it was 78 nM.
Regarding `CCCCC1(CCCC)CS(=O)(=O)c2ccc(N(C)C)cc2C(c2cccc(NC(=S)Nc3cccc(C[N+](C)(C)C(C)c4cccc5ccccc45)c3)c2)N1` (stereo not drawn) [Example 4605], the IC50 on human IBAT came out at 79 nM.
`CCCCC1(CCCC)CS(=O)(=O)c2ccc(N(C)C)cc2C(c2cccc(NC(=S)Nc3ccc(C[n+]4ccccc4C)cc3)c2)N1` (stereo not drawn) [Example 5407]: at human IBAT, the half-inhibitory concentration (IC50) stood at 52 nM.
On the same count and under the same terms, in the case of `CCCCC1(CCCC)CS(=O)(=O)c2ccc(N(C)C)cc2C(c2cccc(NC(=S)Nc3ccc(C[n+]4c(C)cc(C)cc4C)cc3)c2)N1` (stereo not drawn) [Example 5409] it was 42 nM.
At human IBAT, `CCCCC1(CCCC)CS(=O)(=O)c2ccc(N(C)C)cc2C(c2cccc(NC(=S)Nc3ccc(C[n+]4cccc(F)c4)cc3)c2)N1` (stereo not drawn) [Example 5416] displayed an IC50 of 77 nM.
The same measure, in the same setting: to `CCCCC1(CCCC)CS(=O)(=O)c2ccc(N(C)C)cc2C(c2cccc(NC(=S)Nc3ccc(C[n+]4cc(O)cc(Cl)c4)cc3)c2)N1` (stereo not drawn) [Example 5417] belongs 26 nM.
Consider `CCCCC1(CCCC)CS(=O)(=O)c2ccc(N(C)C)cc2C(c2cccc(NC(=S)Nc3ccc(C[n+]4cccc(Cl)c4)cc3)c2)N1` (stereo not drawn) [Example 5418], for which the 50% inhibitory concentration (IC50) at human IBAT was 69 nM.
For `CCCCCC1(CCCCC)CS(=O)(=O)c2ccc(N(C)C)cc2C(c2cccc(NC(=S)Nc3ccc(C[N+](C)(C)Cc4ccccc4)cc3)c2)N1.[Br-]` (stereo not drawn) [Example 5480], the “Toxicity (%) to Caco 2” value in the data set on Caco 2 cells (3 μM), with Caco 2 cells (10 μM) and in the data set with Caco 2 cells (30 μM) was below 1% in each case.
